Common to all, as to format: biochemical
The target of assay [1] is T1, Saccharomyces cerevisiae α-glucosidase (E.C. 3.2.1.20) (Saccharomyces cerevisiae, UniProt P53341).
T1 construct: purchased Sigma-Aldrich through Capital Lab Supplies
The assay is described as follows: α-Glucosidase inhibitory effect (pNPG method). On the procedure:
(§1) Saccharomyces cerevisiae α-glucosidase (E.C. 3.2.1.20), porcine pancreatic α-amylase (E.C. 3.2.1.1), p-nitrophenyl glucopyranoside (pNPG) and p-nitrophenol were obtained from Sigma-Aldrich through Capital Lab Supplies, New Germany, South Africa. Starch, dinitrosalicylic acid (DNS), maltose, absolute ethanol and ethyl acetate were obtained from Merck Chemical Company, Durban, South Africa.
(§2) The 5.0 mM p-nitrophenyl glucopyranoside (pNPG) substrate solution was prepared in 20 mM phosphate buffer, pH 6.9. […] Thereafter, 250 μL of 5.0 mM pNPG was dissolved in 20 mM phosphate buffer (pH 6.9) as a substrate to start the reaction. The reaction mixture was incubated at 37 °C for 30 min.

The target of assay [2] is T1, Saccharomyces cerevisiae α-glucosidase (E.C. 3.2.1.20). Kind of assay: biochemical. The conditions noted are these: for type of inhibition of α-glucosidase: Lineweaver-Burke plot. On the procedure: as §2
(§3) The isolated compounds were subjected to kinetic experiments to determine the type of inhibition exerted on α-amylase and α-glucosidase. The experiment was conducted according to the protocols mentioned above at a constant concentration of the compounds (30 μg/mL) with a variable concentration of substrate. […] The initial velocity data obtained were used to construct Lineweaver-Burke plots to determine the K M (Michaelis constant) and v max (maximum velocity) of the enzyme as well as the Ki (inhibition binding constant as a measure of affinity of the inhibitor to the enzyme) and the type of inhibition for both enzymes.

The target of assay [3] is T2, porcine pancreatic α-amylase (E.C. 3.2.1.1) (Sus scrofa, UniProt P00690).
T2 construct: purchased Sigma-Aldrich through Capital Lab Supplies
T2 sequence (P00690 16-511): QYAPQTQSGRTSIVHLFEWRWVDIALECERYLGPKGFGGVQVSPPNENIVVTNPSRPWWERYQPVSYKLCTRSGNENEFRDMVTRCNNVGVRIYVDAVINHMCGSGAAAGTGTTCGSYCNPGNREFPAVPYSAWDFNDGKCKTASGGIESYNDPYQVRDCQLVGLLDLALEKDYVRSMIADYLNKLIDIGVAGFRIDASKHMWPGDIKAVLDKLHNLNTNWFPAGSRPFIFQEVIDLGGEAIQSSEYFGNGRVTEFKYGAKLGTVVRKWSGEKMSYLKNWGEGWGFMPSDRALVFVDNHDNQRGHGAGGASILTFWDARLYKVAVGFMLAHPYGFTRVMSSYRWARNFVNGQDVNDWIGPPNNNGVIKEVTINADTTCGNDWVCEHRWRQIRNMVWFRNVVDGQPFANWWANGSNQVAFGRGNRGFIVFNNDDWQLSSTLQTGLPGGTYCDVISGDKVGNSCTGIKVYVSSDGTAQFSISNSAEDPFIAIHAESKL
Kind of assay: α-Amylase inhibitory effect (starch/DNS method). The conditions noted are these: mean ± SD of triplicate; compounds tested at 30–240 μg/mL; read-out: IC50 α-amylase inhibition. The procedure:
as §1
(§4) This solution was pre-incubated at 25 °C for 10 min, after which 250 μL of 1% starch solution in 0.02 M sodium phosphate buffer (pH 6.9) was added at a time interval of 10 s and then further incubated at 25 °C for 10 min. The reaction was terminated after incubation by adding 1 mL of dinitrosalicylic acid (DNS) reagent. The tube was then boiled for 10 min and cooled to room temperature. […] A control was prepared using the same procedure using distilled water instead of the compound.

The target of assay [4] is T2, porcine pancreatic α-amylase (E.C. 3.2.1.1). The assay is described as follows: Mechanism of α-amylase inhibition (Lineweaver-Burke kinetics). The conditions noted are these: compound 30 μg/mL; for type of inhibition of α-amylase: Lineweaver-Burke plot; for KM, α-amylase inhibition / Ki / Vmax, α-amylase inhibition: starch 0.063–1.0%. On the procedure: as §4, §3
Setting [5] is: compound 30 μg/mL, pNPG 0.313–5.0 mM.
The mark [6] stands for this setting: mean ± SD of triplicate, compounds tested at 30–240 μg/mL, read-out: IC50 α-glucosidase inhibition.
Setting [7] is: compound 30 μg/mL, pNPG 0.313–5.0 mM, read-out: Ki, α-glucosidase inhibition (converted).

SMILES strings stand for the structures. Read-outs that look alike come from different tables or passages of the source.

T1 sequence (P53341 whole entry): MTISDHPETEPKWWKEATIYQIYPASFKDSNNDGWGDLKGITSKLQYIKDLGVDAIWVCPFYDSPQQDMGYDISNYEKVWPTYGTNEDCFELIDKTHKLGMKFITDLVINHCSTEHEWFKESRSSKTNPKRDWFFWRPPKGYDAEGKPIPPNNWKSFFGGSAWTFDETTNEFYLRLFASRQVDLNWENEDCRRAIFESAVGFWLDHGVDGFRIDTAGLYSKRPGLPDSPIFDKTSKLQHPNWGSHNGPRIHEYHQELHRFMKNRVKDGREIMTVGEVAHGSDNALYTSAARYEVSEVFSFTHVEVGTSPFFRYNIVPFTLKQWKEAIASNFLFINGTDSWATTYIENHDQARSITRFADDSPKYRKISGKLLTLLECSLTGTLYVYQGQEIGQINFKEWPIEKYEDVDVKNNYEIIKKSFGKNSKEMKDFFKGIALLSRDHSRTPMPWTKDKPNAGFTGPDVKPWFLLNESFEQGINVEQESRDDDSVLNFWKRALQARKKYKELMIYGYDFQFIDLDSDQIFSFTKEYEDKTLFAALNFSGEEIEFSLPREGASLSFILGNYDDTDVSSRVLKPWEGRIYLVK

Consider `CCCCC[C@H](O)CC(=O)CCc1ccc(O)c(OC)c1` [6-Gingerol (3), 6-gingerol], for which half-maximal inhibition in assay [1] (IC50) was put at 21.5 ± 0.45 µM. Also, in assay [2], the affinity, expressed as Ki, was 26.6 µM. Besides, the “type of inhibition of α-glucosidase” value in assay [2] (compound 30 μg/mL) is reported as “noncompetitive”. Also, the “Vmax, α-glucosidase inhibition” value in assay [2] (setting [5]) came to 123.10 µmol/min. Moreover, the IC50 in assay [3] amounted to 81.8 ± 7.79 µM. Further, in assay [4], the “type of inhibition of α-amylase” value is reported as “noncompetitive”; the “KM, α-amylase inhibition” value was 0.06%; the Ki was 89.9 µM; the “Vmax, α-amylase inhibition” value came to 16.73 µmol/min.
For the molecule `CCCCCCCC(=O)CCc1ccc(O)c(OC)c1` [6-Paradol (1), 6-paradol], in assay [1] (setting [6]), the IC50 was determined as 243 ± 6.65 µM. In addition, the “type of inhibition of α-glucosidase” value in assay [2] (compound 30 μg/mL) is given as “noncompetitive”. Also, the “Vmax, α-glucosidase inhibition” value in assay [2] (setting [5]) was 81.20 µmol/min. The Ki in assay [2] (setting [7]) is 22.4 µM. Also, the IC50 in assay [3] was 665 ± 11.6 µM. Also, in assay [4], the “type of inhibition of α-amylase” value was “noncompetitive”; the “KM, α-amylase inhibition” value came out at 0.06%; the Ki was 83.7 µM; the “Vmax, α-amylase inhibition” value is 15.60 µmol/min.
As to `CCCCC/C=C/C(=O)CCc1ccc(O)c(OC)c1` [6-Shagaol (2), 6-shogaol], in assay [1] (setting [6]), the IC50 turned out to be 326 ± 5.6 µM. The “Vmax, α-glucosidase inhibition” value in assay [2] (setting [5]) worked out at 55.70 µmol/min. Moreover, the Ki in assay [2] (setting [7]) was 14.5 µM. In assay [3], the IC50 was 443.2 ± 1.38 µM. In assay [4], the “type of inhibition of α-amylase” value was “mixed”; the “KM, α-amylase inhibition” value was found to be 0.09%; the affinity corresponds to a Ki of 226 µM; the “Vmax, α-amylase inhibition” value turned out to be 24.10 µmol/min.
Take `CC1(C)CC[C@]2(C(=O)O)CC[C@]3(C)C(=CC[C@@H]4[C@@]5(C)CC[C@H](O)C(C)(C)[C@@H]5CC[C@]43C)[C@@H]2C1` [Oleanolic acid (4), oleanolic acid]: the “Vmax, α-glucosidase inhibition” value in assay [2] (setting [5]) worked out at 64.20 µmol/min.

As usually defined, the IC50 is the concentration at which inhibition is half-maximal. The Ki is a dissociation constant, usually derived from enzyme kinetics or from competition with a known ligand.
